Data from US20250059220A1, “SUBSTITUTED BENZOTHIOPHENE DERIVATIVES AND METHODS OF USE THEREOF” (Merck Sharp & Dohme LLC, priority 2021, published 2025).

What was measured:
human PTPN1 (1-435) = human PTPN1 (1-435) (Homo sapiens (Human), UniProt P18031); assay: Human PTPN1 Biochemical Assay; settings: DiFMUP substrate, read-out: PTP1B IC50
Summary of the method: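 Read-out is DiFMUP hydrolysis fluorescence (360 nm excitation, 460 nm emission) after 1 h at room temperature, following 30 min enzyme–compound preincubation.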

human PTPN2 (1-387) = human PTPN2 (1-387) (Homo sapiens (Human), UniProt P17706); assay: Human PTPN2 Biochemical Assay; settings: DiFMUP substrate
Sequence of human PTPN2 (1-387) (P17706 other isoform, or with tags, fused parts or gaps): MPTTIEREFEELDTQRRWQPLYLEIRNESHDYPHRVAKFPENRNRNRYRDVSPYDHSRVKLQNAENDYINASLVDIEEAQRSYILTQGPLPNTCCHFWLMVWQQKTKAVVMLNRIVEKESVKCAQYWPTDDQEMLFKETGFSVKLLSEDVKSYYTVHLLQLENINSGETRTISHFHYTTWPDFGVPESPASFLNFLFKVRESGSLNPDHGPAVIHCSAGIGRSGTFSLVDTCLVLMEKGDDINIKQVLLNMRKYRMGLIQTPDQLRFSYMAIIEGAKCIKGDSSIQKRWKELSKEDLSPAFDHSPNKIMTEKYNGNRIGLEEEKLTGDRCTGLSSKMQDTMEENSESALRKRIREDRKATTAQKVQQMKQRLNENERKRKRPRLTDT
Summary of the method: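 Human PTPN2 (1-387) preincubated 30 min at RT with compound (10-point 3-fold series) in Tris pH 7.4 buffer with 0.5 mM DTT, then DiFMUP substrate added for 1 h at RT. Fluorescence at ex 360/em 460 nm, normalised to no-enzyme and enzyme controls; EC50 from 4-parameter fit.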

Sequence of human PTPN1 (1-435) (P18031 whole entry): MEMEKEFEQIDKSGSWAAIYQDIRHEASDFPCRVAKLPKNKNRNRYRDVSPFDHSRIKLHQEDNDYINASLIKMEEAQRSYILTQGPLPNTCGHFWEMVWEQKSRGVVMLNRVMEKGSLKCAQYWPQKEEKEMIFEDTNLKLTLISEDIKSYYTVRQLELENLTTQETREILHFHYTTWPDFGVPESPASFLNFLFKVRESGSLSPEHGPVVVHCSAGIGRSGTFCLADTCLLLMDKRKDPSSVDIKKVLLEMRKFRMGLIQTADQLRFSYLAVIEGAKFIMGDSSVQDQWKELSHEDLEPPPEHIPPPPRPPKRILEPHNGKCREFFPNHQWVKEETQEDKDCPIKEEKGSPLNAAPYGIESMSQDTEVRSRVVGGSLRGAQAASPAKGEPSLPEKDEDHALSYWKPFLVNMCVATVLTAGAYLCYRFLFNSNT

Row | Structure (SMILES) | IC50 (human PTPN1 (1-435)) | IC50 (human PTPN2 (1-387))
1 | O=C(NC1(c2cccc(F)c2)CCCC1)c1ccc2sc(C(F)(F)P(=O)(O)O)c(Br)c2c1 [Compound 115] | 3620 nM | 2600 nM
2 | O=C(NC(c1ccc(F)cc1)C(F)F)c1ccc2sc(C(F)(F)P(=O)(O)O)c(Br)c2c1 (stereo not drawn) [Compound 117] | 2140 nM | 2730 nM
3 | Cc1cc(C)n(-c2ccccc2NC(=O)c2ccc3sc(C(F)(F)P(=O)(O)O)c(Br)c3c2)n1 [Compound 118] | 5910 nM | 6170 nM
4 | O=C(NCc1cnc2[nH]ccc2c1)c1ccc2sc(C(F)(F)P(=O)(O)O)c(Br)c2c1 [Compound 119] | 404 nM | 630 nM
5 | O=C(NCc1ccc(C(F)(F)F)nc1)c1ccc2sc(C(F)(F)P(=O)(O)O)c(Br)c2c1 [Compound 121] | 2310 nM | 3100 nM
6 | O=C(NC1CCS(=O)(=O)CC1)c1ccc2sc(C(F)(F)P(=O)(O)O)c(Br)c2c1 [Compound 128] | 4080 nM | 4900 nM
7 | O=C(NCc1ccc(F)nc1)c1ccc2sc(C(F)(F)P(=O)(O)O)c(Br)c2c1 [Compound 133] | 1450 nM | 1180 nM
8 | CC(NC(=O)c1ccc2sc(C(F)(F)P(=O)(O)O)c(Br)c2c1)c1cncnc1 (stereo not drawn) [Compound 138] | 2080 nM | 2910 nM
9 | Cn1cncc1CNC(=O)c1ccc2sc(C(F)(F)P(=O)(O)O)c(Br)c2c1 [Compound 141] | 2320 nM | 3720 nM
10 | O=C(NCCn1cncn1)c1ccc2sc(C(F)(F)P(=O)(O)O)c(Br)c2c1 [Compound 146] | 3650 nM | 7470 nM
11 | CC(Cn1ccnc1)NC(=O)c1ccc2sc(C(F)(F)P(=O)(O)O)c(Br)c2c1 (stereo not drawn) [Compound 148] | 5270 nM | 5940 nM
12 | Cc1cnn(CCNC(=O)c2ccc3sc(C(F)(F)P(=O)(O)O)c(Br)c3c2)c1 [Compound 149] | 3130 nM | 6010 nM
13 | O=C(NCCn1nncc1-c1ccccc1)c1ccc2sc(C(F)(F)P(=O)(O)O)c(Br)c2c1 [Compound 150] | 2590 nM | 6280 nM
14 | COc1ccc2c(c1)C(CC(C)NC(=O)c1ccc3sc(C(F)(F)P(=O)(O)O)c(Br)c3c1)C=N2 (stereo not drawn) [Compound 152] | 4410 nM | 8220 nM
15 | O=C(NCCc1c[nH]c2ccccc12)c1ccc2sc(C(F)(F)P(=O)(O)O)c(Br)c2c1 [Compound 153] | 3160 nM | 1950 nM
16 | COc1ccc2[nH]cc(CCNC(=O)c3ccc4sc(C(F)(F)P(=O)(O)O)c(Br)c4c3)c2c1 [Compound 154] | 1520 nM | 2770 nM
17 | O=C(NCCSC(F)(F)F)c1ccc2sc(C(F)(F)P(=O)(O)O)c(Br)c2c1 [Compound 157] | 2380 nM | 5250 nM
18 | O=C(NCc1c[nH]nn1)c1cc(Cl)c2sc(C(F)(F)P(=O)(O)O)c(Br)c2c1 [Compound 159] | 251 nM | 470 nM
19 | O=C(NCc1cccnn1)c1cc(Cl)c2sc(C(F)(F)P(=O)(O)O)c(Br)c2c1 [Compound 160] | 315 nM | 546 nM
20 | N#Cc1cc(C(=O)NCc2cccnn2)cc2c(Br)c(C(F)(F)P(=O)(O)O)sc12 [Compound 161] | 446 nM | 344 nM
21 | N#Cc1cc(C(=O)NCc2c[nH]nn2)cc2c(Br)c(C(F)(F)P(=O)(O)O)sc12 [Compound 162] | 244 nM | 222 nM
22 | COc1cc(C(=O)NCc2cccnn2)cc2c(Br)c(C(F)(F)P(=O)(O)O)sc12 [Compound 163] | 436 nM | 301 nM
23 | O=C(NCc1c[nH]nn1)c1cc(F)c2sc(C(F)(F)P(=O)(O)O)c(Br)c2c1 [Compound 165] | 675 nM | 390 nM
24 | CC(C)(O)CCOc1cc(C(N)=O)cc2c(Br)c(C(F)(F)P(=O)(O)O)sc12 [Compound 170] | 518 nM | 636 nM
25 | N#Cc1c(C(F)(F)P(=O)(O)O)sc2ccc(C(=O)NCc3cccnn3)cc12 [Compound 172] | 663 nM | 581 nM
26 | O=C(NCc1ncc[nH]1)c1ccc2sc(C(F)(F)P(=O)(O)O)c(Br)c2c1 [Compound 174] | 8610 nM | 4140 nM
27 | CC(NC(=O)c1ccc2sc(C(F)(F)P(=O)(O)O)c(Br)c2c1)c1nncn1C (stereo not drawn) [Compound 175] | 1420 nM | 2020 nM
28 | C[C@@H](NC(=O)c1ccc2sc(C(F)(F)P(=O)(O)O)c(Br)c2c1)c1ccnn1C [Compound 176] | 2680 nM | 4720 nM
29 | CCC(NC(=O)c1ccc2sc(C(F)(F)P(=O)(O)O)c(Br)c2c1)c1cccnc1 (stereo not drawn) [Compound 177] | 839 nM | 2070 nM

The remaining molecules from weak to strong by IC50 (human PTPN1 (1-435)), led by results:

Row | IC50 (human PTPN1 (1-435)) | IC50 (human PTPN2 (1-387)) | Structure (SMILES)
30 | 6120 nM | 7380 nM | Cc1nn(C)c(C)c1CNC(=O)c1ccc2sc(C(F)(F)P(=O)(O)O)c(Br)c2c1 [Compound 124]
31 | 5230 nM | 6520 nM | COCCCNC(=O)c1ccc2sc(C(F)(F)P(=O)(O)O)c(Br)c2c1 [Compound 125]
32 | 5230 nM | 6110 nM | O=C(NCC1CNC1)c1ccc2sc(C(F)(F)P(=O)(O)O)c(Br)c2c1 [Compound 126]
33 | 5140 nM | 6700 nM | O=C(NC1CCCOC1)c1ccc2sc(C(F)(F)P(=O)(O)O)c(Br)c2c1 (stereo not drawn) [Compound 127]
34 | 4700 nM | 5230 nM | O=C1NC[C@H](CNC(=O)c2ccc3sc(C(F)(F)P(=O)(O)O)c(Br)c3c2)N1 [Compound 132]
35 | 4590 nM | 6980 nM | CC(Cn1cncn1)NC(=O)c1ccc2sc(C(F)(F)P(=O)(O)O)c(Br)c2c1 (stereo not drawn) [Compound 145]
36 | 4340 nM | 6140 nM | O=C(NCCn1cnnc1)c1ccc2sc(C(F)(F)P(=O)(O)O)c(Br)c2c1 [Compound 143]
37 | 4130 nM | 4160 nM | O=C1NC[C@@H](CNC(=O)c2ccc3sc(C(F)(F)P(=O)(O)O)c(Br)c3c2)N1 [Compound 131]
38 | 3890 nM | 5370 nM | COc1ncccc1CNC(=O)c1ccc2sc(C(F)(F)P(=O)(O)O)c(Br)c2c1 [Compound 122]
39 | 3800 nM | 4990 nM | O=C(NCc1cccnc1C(F)(F)F)c1ccc2sc(C(F)(F)P(=O)(O)O)c(Br)c2c1 [Compound 120]
40 | 3760 nM | 4250 nM | O=C1CCC(CNC(=O)c2ccc3sc(C(F)(F)P(=O)(O)O)c(Br)c3c2)N1 (stereo not drawn) [Compound 136]
41 | 3560 nM | 4290 nM | O=C(NCc1cnccn1)c1ccc2sc(C(F)(F)P(=O)(O)O)c(Br)c2c1 [Compound 123]
42 | 3560 nM | 3070 nM | O=C(NCc1c[nH]nn1)c1cc(O)c2sc(C(F)(F)P(=O)(O)O)c(Br)c2c1 [Compound 167]
43 | 3500 nM | 5170 nM | O=C(NCC1CCCN(c2ncccn2)C1)c1ccc2sc(C(F)(F)P(=O)(O)O)c(Br)c2c1 (stereo not drawn) [Compound 114]
44 | 3190 nM | 5660 nM | O=C(NCCn1ccnn1)c1ccc2sc(C(F)(F)P(=O)(O)O)c(Br)c2c1 [Compound 147]
45 | 3160 nM | 3600 nM | O=C(NCc1cccnn1)c1cc(O)c2sc(C(F)(F)P(=O)(O)O)c(Br)c2c1 [Compound 166]
46 | 2740 nM | 5980 nM | CC(CC1C=Nc2ccc(F)cc21)NC(=O)c1ccc2sc(C(F)(F)P(=O)(O)O)c(Br)c2c1 (stereo not drawn) [Compound 151]

Row | IC50 (human PTPN1 (1-435)) | IC50 (human PTPN2 (1-387)) | Structure (SMILES)
47 | 2640 nM | 1870 nM | O=C(NCc1cn2ccccc2n1)c1ccc2sc(C(F)(F)P(=O)(O)O)c(Br)c2c1 [Compound 142]
48 | 2400 nM | 2880 nM | O=C(NCc1ccc[n+]([O-])c1)c1ccc2sc(C(F)(F)P(=O)(O)O)c(Br)c2c1 [Compound 134]
49 | 2380 nM | 2160 nM | Cn1cc(CCNC(=O)c2ccc3sc(C(F)(F)P(=O)(O)O)c(Br)c3c2)c2ccccc21 [Compound 155]
50 | 2230 nM | 2640 nM | Cc1c[nH]c(CNC(=O)c2ccc3sc(C(F)(F)P(=O)(O)O)c(Br)c3c2)c(C)c1=O [Compound 129]
51 | 2180 nM | 1470 nM | N#Cc1c(C(F)(F)P(=O)(O)O)sc2ccc(C(=O)NCc3ncn[nH]3)cc12 [Compound 171]
52 | 1920 nM | 1900 nM | O=C(NCc1cncc(F)c1)c1ccc2sc(C(F)(F)P(=O)(O)O)c(Br)c2c1 [Compound 135]
53 | 1790 nM | 902 nM | O=C(NCCn1ccc2ccccc21)c1ccc2sc(C(F)(F)P(=O)(O)O)c(Br)c2c1 [Compound 156]
54 | 1480 nM | 1810 nM | O=C(NCc1c[nH]nn1)c1ccc2sc(C(F)(F)P(=O)(O)O)c(Br)c2c1 [Compound 140]
55 | 1450 nM | 456 nM | O=C(NC(c1cccnc1)C(F)(F)F)c1ccc2sc(C(F)(F)P(=O)(O)O)c(Br)c2c1 (stereo not drawn) [Compound 158]
56 | 1410 nM | 7170 nM | O=C(NCCn1cccn1)c1ccc2sc(C(F)(F)P(=O)(O)O)c(Br)c2c1 [Compound 144]
57 | 1300 nM | 1490 nM | O=C(NCc1ncn[nH]1)c1ccc2sc(C(F)(F)P(=O)(O)O)c(Br)c2c1 [Compound 139]
58 | 1090 nM | 1220 nM | C[C@@H](NC(=O)c1ccc2sc(C(F)(F)P(=O)(O)O)c(Br)c2c1)c1cccnn1 [Compound 130]
59 | 1090 nM | 1420 nM | Cc1ccc(CNC(=O)c2ccc3sc(C(F)(F)P(=O)(O)O)c(Br)c3c2)nn1 [Compound 137]
60 | 986 nM | 1060 nM | O=C(N[C@H]1CCN(C(=O)C2CC2)C1)c1ccc2sc(C(F)(F)P(=O)(O)O)c(Br)c2c1 [Compound 116]
61 | 738 nM | 578 nM | N#Cc1c(C(F)(F)P(=O)(O)O)sc2ccc(C(=O)NCc3c[nH]nn3)cc12 [Compound 173]
62 | 361 nM | 435 nM | O=C(NCc1cccnn1)c1cc(F)c2sc(C(F)(F)P(=O)(O)O)c(Br)c2c1 [Compound 164]
63 | 28.2 nM | 29.7 nM | NC(=O)c1cc(OCCCC(F)(F)F)c2sc(C(F)(F)P(=O)(O)O)c(Br)c2c1 [Compound 168]
